According to ChEMBL document CHEMBL1781984 (J Nat Prod, 2011):

Key:
P388 = test: Anticancer activity against mouse P388 cells; assay type: functional
NCI-H460 = test: Anticancer activity against human NCI-H460 cells; assay type: functional
KM-20L2 = test: Anticancer activity against human KM20L2 cells; assay type: functional
DU-145 = test: Anticancer activity against human DU145 cells; assay type: functional
BXPC-3 = test: Anticancer activity against human BxPC3 cells; assay type: functional
MCF7 = test: Anticancer activity against human MCF7 cells; assay type: functional
SF-268 = test: Anticancer activity against human SF268 cells; assay type: functional
[1] = Aqueous solubility of the compound in distilled water at 23 degC; assay type: physicochemical

| SMILES | GI50 (P388) [nM] | GI50 (NCI-H460) [nM] | GI50 (KM-20L2) [nM] | GI50 (DU-145) [nM] | GI50 (BXPC-3) [nM] | GI50 (MCF7) [nM] | GI50 (SF-268) [nM] | solubility [1] [mg/mL] |
| --- | --- | --- | --- | --- | --- | --- | --- | --- |
| CC[C@H](C)[C@@H]([C@@H](CC(=O)N1CCC[C@H]1[C@H](OC)[C@@H](C)C(=O)NCCc1ccc(OP(=O)(O)O)cc1)OC)N(C)C(=O)[C@@H](NC(=O)[C@H](C(C)C)N(C)C)C(C)C [SODIUM AURISTATIN TP] | < 1.2 | 1.05 | 0.72 | 0.64 | 54.6 | 0.81 | 1.48 | – |
| CC[C@H](C)[C@@H]([C@@H](CC(=O)N1CCC[C@H]1[C@H](OC)[C@@H](C)C(=O)Nc1ccc2ncccc2c1)OC)N(C)C(=O)[C@@H](NC(=O)[C@H](C(C)C)N(C)C)C(C)C | – | 0.5 | 0.35 | 0.41 | 0.43 | 0.19 | 0.22 | – |
| CC[C@H](C)[C@@H]([C@@H](CC(=O)N1CCC[C@H]1[C@H](OC)[C@@H](C)C(=O)NCCc1ccc(OP(=O)(O)O)cc1)OC)N(C)C(=O)[C@@H](NC(=O)[C@H](C(C)C)N(C)C)C(C)C [POTASSIUM AURISTATIN TP] | 8.7 | – | – | – | – | – | – | – |
| C=C[C@H]1CN2CCC1C[C@H]2[C@H](O)c1ccnc2ccc(OC)cc12.CC[C@H](C)[C@@H]([C@@H](CC(=O)N1CCC[C@H]1[C@H](OC)[C@@H](C)C(=O)NCCc1ccc(OP(=O)(O)O)cc1)OC)N(C)C(=O)[C@@H](NC(=O)[C@H](C(C)C)N(C)C)C(C)C [Quinine Auristatin TP] | – | – | – | – | – | – | – | < 5 |
| C1COCCN1.CC[C@H](C)[C@@H]([C@@H](CC(=O)N1CCC[C@H]1[C@H](OC)[C@@H](C)C(=O)NCCc1ccc(OP(=O)(O)O)cc1)OC)N(C)C(=O)[C@@H](NC(=O)[C@H](C(C)C)N(C)C)C(C)C [MORPHOLINE AURISTATIN TP] | – | – | – | – | – | – | – | > 72 |
| CC[C@H](C)[C@@H]([C@@H](CC(=O)N1CCC[C@H]1[C@H](OC)[C@@H](C)C(=O)Nc1ccc2ccccc2n1)OC)N(C)C(=O)[C@@H](NC(=O)[C@H](C(C)C)N(C)C)C(C)C | – | 22.1 | 10.6 | 31.8 | 40.1 | 6.35 | 40.1 | – |
